Test results: a melting point compilation (Tetko et al.; mined from patent text by program, amines drawn as free bases though some values may be those of a salt)

| melting point | Structure (SMILES) |
| --- | --- |
| 140 to 142 °C | O=C(O)CCC(=O)c1cccc(-n2ccnc2)c1 |
| 167 to 168 °C | O=C(O)c1ccccc1Sc1ccc(F)cc1[N+](=O)[O-] |
| 102 to 106 °C | COCCOc1ccc(/C=C/C(=O)NS(=O)(=O)c2ccc(C)cc2)c(Oc2ncc(C(F)(F)F)cc2Cl)c1 |
| 226 to 227 °C | Cc1ccc(-c2c(C(=O)Nc3nccs3)nc(-c3cccc4ccccc34)n2CCN2CCOCC2)cc1 |
| 190 to 196 °C | Cc1ccc(F)cc1C(=O)Nc1ccc(C(=O)N2Cc3cccn3-c3ccccc32)cn1 |
| 188 to 189 °C | N#CNC(=Nc1ccncc1)NCCCCCOc1ccccc1 |
| 119 to 121 °C | COc1cccc(C(=O)c2cc3ccccc3[nH]2)c1 |
| 118 to 119 °C | CCCCCCCCCCCCCCCCCCOCC(O)Cn1cc(F)c(N)nc1=O (stereo not drawn) |
| 147 to 148 °C | C=CCN1C(C)(C)CC(=C2CC(C)(C)N(CC=C)C(C)(C)C2)CC1(C)C |
| 228 to 230 °C | Cc1cc(C2(O)C(=O)c3ccccc3C2=O)c(C)cc1O |
| 187 °C | CCCc1nc(Sc2ccc(OC)cc2)c(CC(=O)O)n1Cc1cc2c(cc1Cl)OCO2 |
| > 210 °C | O=C(O)Cn1c(=O)c(=O)[nH]c2cc([N+](=O)[O-])c(-n3ccc(CN4CCC(c5ccccc5)CC4)c3)cc21 |
| 194 °C | N#CCN1CCC(NC(=O)c2cc(Cl)c(N)c3c2OCCC3)CC1 |
| 177 to 178 °C | COc1ccc(S(=O)(=O)Nc2cccc(F)c2/C=C/c2ccncc2)cc1 |
| 127 to 128 °C | CC(Oc1ccc(Oc2ncc(C(F)(F)F)cc2F)cc1)C(=O)Nc1ccc(C(F)(F)F)cc1 (stereo not drawn) |
| 205 to 206 °C | CCCCc1ncc(/C=C(\Cc2cccs2)C(=O)O)n1Cc1ccccc1[N+](=O)[O-] |
| 150 to 152 °C | CCn1nc(C(F)(F)F)c(C)c1O |
| 205 to 206 °C | CNc1nc(N)nc(-c2cc(Cl)ccc2Cl)n1 |
| 137 to 138 °C | Cc1cc(OCc2ccccc2)cc2nc(OC(C)C)oc(=O)c12 |
| 196 to 197 °C | COc1cc2c3c(n(C)c(=O)c2cc1OC)-c1cc2c(cc1C3=CCCCCBr)OCO2 |
| 236 to 238 °C | NC(=O)c1cnn2c(-c3ccccc3)ccnc12 |
| 158 to 160 °C | OCCN1CCn2c1nc1ccccc12 |

| melting point | Structure (SMILES) |
| --- | --- |
| 116 °C | CC1(C)[C@H]2[C@H](O)OC(=O)[C@H]21 |
| 214 to 216 °C | Cc1cc2ncc(C(=O)O)nc2cc1C |
| 151 to 152 °C | COC(=O)C1=C(C)NC(C)=C(C(=O)OCCCCCCCC#N)C1c1cccc([N+](=O)[O-])c1 (stereo not drawn) |
| 128 to 129 °C | Cc1cc(C)cc(COCC(NC(=O)c2ccccc2)C(c2ccccc2)c2ccccc2)c1 (stereo not drawn) |
| 95 to 98 °C | CCCCN(Cc1ccc(-c2ccccc2-c2nc(=O)o[nH]2)cc1)c1ncccc1C(=O)O |
| 235 to 236 °C | CCON=C1CN(c2c(F)c(N)c3c(=O)c(C(=O)O)cn(C4CC4)c3c2F)CC12CN(C(=O)OC(C)(C)C)C2 |
| 120 to 130 °C | COc1cc2c(cc1OC)[C@@H]1CCCC[C@@H]1N=C2c1ccc(N(S(=O)(=O)c2ccc(C)cc2)S(=O)(=O)c2ccc(C)cc2)cc1 (racemic) |
| 149 to 150 °C | CCC(OC)c1c(Br)c(Oc2ncnc3[nH]nnc23)c(OC)c(C)c1C(C)C (stereo not drawn) |
| 248 to 250 °C | CCOC(=O)C(=O)Nc1ccc2c(=O)n3c(nc2c1)C(=Cc1ccccc1)CC3 |
| 197 to 200 °C | CCCCc1nc[nH]c(=O)c1Cc1ccc(-c2ccccc2C(=O)O)cc1 |
| 136 °C | CSc1nn(C(=O)NS(=O)(=O)c2ccccc2OC(F)(F)F)c(=O)n1N |
| 115 °C | CC(O)(c1cccc(C(F)(F)F)c1)c1cc(Cl)ccc1O (stereo not drawn) |
| 105 to 107 °C | CC#CC(C)(C)NC(=O)C(CC)Oc1ccc2ncc(Cl)cc2c1 (stereo not drawn) |
| 166 to 167 °C | O=CN1CC2CC2(c2ccc(O)cc2)C1 (stereo not drawn) |
| 244 to 246 °C | CNC(=O)c1ccccc1Nc1nc(Nc2ccc3c(c2)CCCC(=O)N3C)ncc1Cl |
| 82 to 84 °C | CCC1(CCSC(C)=O)C(=O)N2CCCC(C(=O)OC(C)(C)C)N2C1=O (stereo not drawn) |
| 102 to 104 °C | CC1(C)C=C(c2ccc3ccccc3n2)c2cc(C#N)ccc2O1 |
| 75 to 77 °C | COc1cccc(C(=O)Nc2nc(C)c(C(=O)NCc3ccccc3)s2)c1 |
| 64 to 66 °C | O=C(CCCCl)Nc1ccccc1 |
| 98 to 100 °C | CN(CCN1CCC(=C(c2ccccc2)c2ccccc2)CC1)c1ncccn1 |
| 237 °C | Nc1cc(C(F)(F)F)c([N+](=O)[O-])cc1C(=O)O |
| 188 to 190 °C | CCCOc1ccc2c(c1)C(c1ccc(OC)cc1OCC(=O)O)C(C(=O)O)C2c1cc2c(cc1OC)OCO2 (stereo not drawn) |

| melting point | Structure (SMILES) |
| --- | --- |
| 116 to 118 °C | C#CCOc1ccc(NCc2ccccc2)c(C(=O)c2ccc(C3CC3)cc2)c1 |
| 85 °C | N#Cc1ccc(SCc2ccccc2)cc1 |
| 148 to 151 °C | CNS(=O)(=O)c1ccccc1Nc1nc(Nc2ccc3c(c2)CCCC(=O)N3CC(=O)N2CCN(C)CC2)ncc1Cl |
| 72 to 74 °C | Cc1cc(Cl)ccc1Cn1nc(C(C)(C)O)c2ccccc21 |
| 170 to 172 °C | CSC1C(=O)Nc2ccc(-c3ccccc3)cc21 (stereo not drawn) |
| 99 to 100 °C | CCCCOC(=O)[C@H]1CN(c2cc(F)c(N3CCOCC3)c(F)c2)C(=O)O1 |
| 123 to 124 °C | CC(C)(C)OC(=O)NCCC(=O)N[C@@H](CC(=O)OCc1ccccc1)C(=O)NCCc1ccc(OCC(=O)OCc2ccccc2)cc1 |
| 153 °C | COC(=O)c1ccccc1S(=O)(=O)NC(=O)n1nc(OCC(F)(F)F)n(C)c1=O |
| 198 to 199 °C | CC(C)(CCC#N)c1ccc(C(=O)Nc2cn3cc(Cl)ccc3n2)cc1 |
| 149 to 151 °C | COc1ccc(S(=O)(=O)Nc2c(Nc3ccccc3)ncnc2Nc2ccccc2)cc1 |
| 76 to 80 °C | CC1(C)CC(=O)OC1CC(=O)c1ccc(Cl)cc1 (stereo not drawn) |
| 203 to 205 °C | CSc1ccc(-c2nc(SC)c(C#N)c(=O)n2-c2ccc(Cl)cc2)cc1 |
| 121 to 122 °C | CCOC(=O)Cn1c(=O)n(Cc2ccc(Cl)c(Cl)c2)c(=O)c2ccccc21 |
| 140 to 141 °C | CC(=O)Nc1c(C#N)c(OC(C)=O)c(C(C)=O)n1C |
| 150 to 156 °C | CC1(c2ccc(F)cc2)Cc2cc(OCC(=O)O)c(Cl)c(Cl)c2C1=O (stereo not drawn) |
| 103 to 105 °C | CCCCCCCCc1ccc(CCC(N)(CO)CO)cc1 |
| 124 to 126 °C | N#CCCCN1C(=O)C(O)(c2cccc(Cl)c2)c2ccccc21 (stereo not drawn) |
| 154 to 156 °C | Nc1ccc(Br)cc1C(=O)NCCCn1ccnc1 |
| 232 to 235 °C | CC(=O)NNc1ccnc2c(NC(=O)c3ccccc3[N+](=O)[O-])cccc12 |
| 152 to 153 °C | CCC(C)n1nc(C)n(-c2ccc(N3CCCN(c4ccc(C(=O)OC)cc4)CC3)cc2)c1=O (stereo not drawn) |

| Structure (SMILES) | melting point |
| --- | --- |
| O=C(Cl)C(=O)c1cn(Cc2ccc(Cl)cc2)c2ccccc12 | 151 to 153 °C |
| OC1(CN2c3ccccc3Sc3ccccc32)CN2CCC1CC2 (stereo not drawn) | 127 to 130 °C |
| CCOC(=O)C1=C(C=NOc2ccc([N+](=O)[O-])cc2[N+](=O)[O-])NC(CF)=C(C(=O)OCC)C1c1cccc([N+](=O)[O-])c1 (stereo not drawn) | 150 to 152 °C |
| O=c1[nH]c2cc(Cl)ccc2n1C1CCN(C[C@H]2CO[C@@H](c3ccc(F)cc3)C2)CC1 (relative stereo) | 208 °C |
